This is an account of results in ChEMBL document CHEMBL4342403, “New evolutions in the BACE1 inhibitor field from 2014 to 2018” (Bioorg Med Chem Lett, 2019).

A value given as a limit tells only on which side of the number the result lay.

The nature of series [1]: Brain to plasma partition coefficient, Kp of the compound in Sprague Dawley rat at 30 mg/kg, po. It counts as ADME, organism-based.
Series [2] is described as follows: Brain to plasma partition coefficient, Kp of the compound in Sprague Dawley rat at 10 mg/kg, po. The format is ADME, organism-based.
Series [3] deals with Rattus norvegicus. Description: In vivo inhibition of BACE1 in Sprague Dawley rat assessed as reduction in amyloidbeta 40 level in brain at 30 mg/kg, po measured at 3 hrs post dose by ELISA relative to control. The format is functional. Background: In an ELISA, binding on a coated surface is turned into a signal by an enzyme label.
The test system of series [4] is Rattus norvegicus. Description: In vivo inhibition of BACE1 in Sprague Dawley rat assessed as reduction in amyloidbeta 40 level in brain at 10 mg/kg, po measured at 3 hrs post dose by ELISA relative to control. The format is functional.
Series [5] relates to Homo sapiens. Description: In vivo inhibition of BACE1 in human assessed as reduction in amyloidbeta(1 to 42 residues) level in CSF at 50 mg, qd administered up to 14 days relative to control. It counts as functional.
Series [6] has as its system Homo sapiens. Description: In vivo inhibition of BACE1 in human assessed as reduction in amyloidbeta(1 to 42 residues) level in CSF at 125 mg, qd administered up to 14 days relative to control. The format is functional.
Series [7] in a line: Dissociation constant, pKa of the compound. The format is physicochemical.
Series [8] concerns Homo sapiens. Description: In vivo inhibition of BACE1 in human assessed as reduction in amyloidbeta(1 to 42 residues) level in CSF at 275 mg, qd administered up to 14 days relative to control. The format is functional.
Series [9] has as its target T1, Beta-secretase 1 (Homo sapiens, UniProt P56817). Description: Inhibition of BACE1 in human H4 cells transfected with APP695 assessed as […] incubated for 18 hrs by ELISA. The format is cell-based.
For series [10], the target named is T2, Beta-secretase 2 (Homo sapiens, UniProt Q9Y5Z0).
T2 sequence (Q9Y5Z0 whole entry): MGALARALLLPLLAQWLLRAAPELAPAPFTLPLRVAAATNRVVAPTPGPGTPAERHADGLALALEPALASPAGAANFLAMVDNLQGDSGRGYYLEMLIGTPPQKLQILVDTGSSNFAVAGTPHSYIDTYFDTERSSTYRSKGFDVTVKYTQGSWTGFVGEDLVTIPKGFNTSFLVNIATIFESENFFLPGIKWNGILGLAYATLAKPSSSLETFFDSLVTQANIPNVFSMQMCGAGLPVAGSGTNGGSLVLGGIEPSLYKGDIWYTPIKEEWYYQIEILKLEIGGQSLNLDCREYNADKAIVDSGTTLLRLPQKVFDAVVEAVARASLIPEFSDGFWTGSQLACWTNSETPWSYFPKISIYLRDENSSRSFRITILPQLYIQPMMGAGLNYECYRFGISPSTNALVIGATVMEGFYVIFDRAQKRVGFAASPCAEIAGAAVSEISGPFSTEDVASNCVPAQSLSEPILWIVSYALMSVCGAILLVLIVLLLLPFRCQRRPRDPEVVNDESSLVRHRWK
Description: Inhibition of human BACE2 expressed in HEK293 cells incubated for 16 to 24 hrs by FRET assay. It counts as cell-based.

Series [11] deals with T1, Beta-secretase 1. Description: Inhibition of BACE1 in human SH-SY5Y cells transfected with APP695 assessed as reduction in amyloidbeta (1 to 40 residues) incubated for 24 hrs by sandwich ELlSA. The format is cell-based.
In series [12] the target is T1, Beta-secretase 1. Description: Inhibition of human BACE1 expressed in HEK293 cells incubated for 16 to 24 hrs by FRET assay. It counts as cell-based.
Series [13] has as its system Homo sapiens. Description: In vivo inhibition of BACE1 in human assessed as reduction in amyloidbeta40 level in CSF at 12 mg administered once daily for 7 days relative to baseline. The format is functional.
Series [14] concerns Homo sapiens. Description: In vivo inhibition of BACE1 in human assessed as reduction in amyloidbeta40 level in CSF at 40 mg administered once daily for 7 days relative to baseline. It counts as functional.
For series [15], the system named is Homo sapiens. Description: In vivo inhibition of BACE1 in human assessed as reduction in amyloidbeta40 level in CSF at 60 mg administered once daily for 7 days relative to baseline. It counts as functional.
The test system of series [16] is Canis familiaris. Description: In vivo inhibition of BACE1 in Beagle dog assessed as reduction in amyloidbeta (1 to 42 residues) at 1.25 mg/kg, po measured at 8 hrs post dose relative to baseline. The format is functional. As to conditions: Canis lupus familiaris.
Series [17] has as its target T1, Beta-secretase 1. Description: Inhibition of BACE1 in human SK-N-BE(2) cells expressing human APP695 assessed as reduction in amyloidbeta (1 to 42 residues) level incubated for 18 hrs by sandwich ELISA. It counts as cell-based.
The test system of series [18] is Canis familiaris. Description: In vivo inhibition of BACE1 in Beagle dog assessed as reduction in amyloidbeta (1 to 42 residues) at 0.31 mg/kg, po measured at 8 hrs post dose relative to baseline. The format is functional. As to conditions: Canis lupus familiaris.
Series [19] addresses T2, Beta-secretase 2. Description: Inhibition of BACE2 (unknown origin) incubated for 450 mins using APP swedish mutant as substrate by FRET assay.
Series [20] addresses T1, Beta-secretase 1. Description: Inhibition of BACE1 (unknown origin) incubated for 120 mins using APP swedish mutant as substrate by FRET assay.
Series [21] deals with Canis familiaris. Description: In vivo inhibition of BACE1 in Beagle dog assessed as reduction in amyloidbeta (1 to 42 residues) at 0.16 mg/kg, po measured at 8 hrs post dose relative to baseline. As to conditions: Canis lupus familiaris. The format is functional.
The subject of series [22] is Homo sapiens. Description: In vivo inhibition of BACE1 in human assessed as reduction in amyloidbeta40 level in CSF at 50 mg administered once daily for 14 days relative to baseline. It counts as functional.
In series [23] the test system is Homo sapiens. Description: In vivo inhibition of BACE1 in human assessed as reduction in amyloidbeta40 level in CSF at 15 mg administered once daily for 14 days relative to baseline. The format is functional.
Series [24] has as its system Homo sapiens. Description: In vivo inhibition of BACE1 in human assessed as reduction in amyloidbeta40 level in CSF at 150 mg administered once daily for 14 days relative to baseline. The format is functional.
Series [25] concerns the target Beta-secretase 1 (Cricetulus griseus, UniProt G3IAK4). Description: Inhibition of BACE1 in CHO cells expressing human APP assessed as reduction in amyloidbeta (1 to 40 residues) level incubated for 24 hrs by immunoassay method. The format is cell-based.
The subject of series [26] is Rattus norvegicus. Description: In vivo inhibition of BACE1 in Sprague Dawley rat assessed as reduction in amyloidbeta 40 level in brain at 3 mg/kg, po by ELISA relative to control. It counts as functional.
The target in series [27] is P-glycoprotein (ABCB1) (Homo sapiens, UniProt P08183). Description: Substrate activity at P-glycoprotein (unknown origin) in MDCK-MDR1cells assessed as efflux ratio incubated over 60 mins by LC-MS/MS analysis. As to conditions: MDCK-MDR1.
P-glycoprotein (ABCB1), sequence (P08183 whole entry): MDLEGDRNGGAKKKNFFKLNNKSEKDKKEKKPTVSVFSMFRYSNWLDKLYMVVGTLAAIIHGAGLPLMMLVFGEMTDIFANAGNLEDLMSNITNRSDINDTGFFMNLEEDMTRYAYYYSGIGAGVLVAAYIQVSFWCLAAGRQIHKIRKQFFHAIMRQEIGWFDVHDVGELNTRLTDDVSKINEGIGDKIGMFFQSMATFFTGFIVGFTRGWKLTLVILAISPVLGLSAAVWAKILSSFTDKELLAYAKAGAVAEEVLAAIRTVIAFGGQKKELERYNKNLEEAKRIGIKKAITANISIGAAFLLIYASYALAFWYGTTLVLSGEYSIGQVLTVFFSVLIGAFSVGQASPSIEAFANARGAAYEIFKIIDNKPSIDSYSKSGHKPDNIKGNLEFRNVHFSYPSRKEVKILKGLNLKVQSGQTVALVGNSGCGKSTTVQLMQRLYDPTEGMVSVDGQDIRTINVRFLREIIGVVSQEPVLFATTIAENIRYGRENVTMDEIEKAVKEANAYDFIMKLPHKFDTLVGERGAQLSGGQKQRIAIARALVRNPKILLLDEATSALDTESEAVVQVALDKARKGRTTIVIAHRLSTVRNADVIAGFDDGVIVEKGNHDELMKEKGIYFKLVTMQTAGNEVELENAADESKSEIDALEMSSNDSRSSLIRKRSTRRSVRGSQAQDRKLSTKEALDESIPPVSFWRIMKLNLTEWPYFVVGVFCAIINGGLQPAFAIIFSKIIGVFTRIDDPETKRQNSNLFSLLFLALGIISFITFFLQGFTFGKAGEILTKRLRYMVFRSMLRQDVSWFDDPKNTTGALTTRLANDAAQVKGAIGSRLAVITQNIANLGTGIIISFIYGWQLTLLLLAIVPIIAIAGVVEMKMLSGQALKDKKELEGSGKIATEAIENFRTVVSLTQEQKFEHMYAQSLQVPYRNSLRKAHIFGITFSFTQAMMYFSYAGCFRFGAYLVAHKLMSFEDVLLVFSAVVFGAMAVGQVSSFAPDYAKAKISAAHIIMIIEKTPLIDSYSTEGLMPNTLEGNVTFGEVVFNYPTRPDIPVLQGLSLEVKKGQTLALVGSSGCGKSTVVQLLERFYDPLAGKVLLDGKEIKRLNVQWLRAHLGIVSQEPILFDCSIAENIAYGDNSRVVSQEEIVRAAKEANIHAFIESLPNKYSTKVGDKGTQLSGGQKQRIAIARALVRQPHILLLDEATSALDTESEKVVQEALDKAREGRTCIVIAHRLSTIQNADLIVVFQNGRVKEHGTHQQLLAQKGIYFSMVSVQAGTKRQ
Series [28] can be described thus: Drug uptake in Sprague Dawley rat brain at 3 mg/kg, po by UPLC-MS/MS analysis. The format is ADME, organism-based. As to conditions: in vivo.

T1 sequence (P56817 whole entry): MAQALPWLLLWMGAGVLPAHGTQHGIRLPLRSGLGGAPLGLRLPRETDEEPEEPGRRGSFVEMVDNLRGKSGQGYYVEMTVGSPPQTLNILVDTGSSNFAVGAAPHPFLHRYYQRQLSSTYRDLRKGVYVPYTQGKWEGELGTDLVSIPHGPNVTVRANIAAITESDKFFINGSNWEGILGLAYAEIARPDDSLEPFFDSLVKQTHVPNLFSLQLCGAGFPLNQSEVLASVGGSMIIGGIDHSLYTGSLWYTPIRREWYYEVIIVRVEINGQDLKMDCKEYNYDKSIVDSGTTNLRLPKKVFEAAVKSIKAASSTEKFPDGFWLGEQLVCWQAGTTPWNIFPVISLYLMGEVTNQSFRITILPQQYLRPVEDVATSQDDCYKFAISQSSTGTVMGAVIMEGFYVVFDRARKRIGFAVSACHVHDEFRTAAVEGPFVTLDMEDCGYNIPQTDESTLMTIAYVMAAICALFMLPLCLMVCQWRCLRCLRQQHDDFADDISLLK
Beta-secretase 1 (Cricetulus griseus, UniProt G3IAK4), sequence (G3IAK4 whole entry, the tested form may be a part): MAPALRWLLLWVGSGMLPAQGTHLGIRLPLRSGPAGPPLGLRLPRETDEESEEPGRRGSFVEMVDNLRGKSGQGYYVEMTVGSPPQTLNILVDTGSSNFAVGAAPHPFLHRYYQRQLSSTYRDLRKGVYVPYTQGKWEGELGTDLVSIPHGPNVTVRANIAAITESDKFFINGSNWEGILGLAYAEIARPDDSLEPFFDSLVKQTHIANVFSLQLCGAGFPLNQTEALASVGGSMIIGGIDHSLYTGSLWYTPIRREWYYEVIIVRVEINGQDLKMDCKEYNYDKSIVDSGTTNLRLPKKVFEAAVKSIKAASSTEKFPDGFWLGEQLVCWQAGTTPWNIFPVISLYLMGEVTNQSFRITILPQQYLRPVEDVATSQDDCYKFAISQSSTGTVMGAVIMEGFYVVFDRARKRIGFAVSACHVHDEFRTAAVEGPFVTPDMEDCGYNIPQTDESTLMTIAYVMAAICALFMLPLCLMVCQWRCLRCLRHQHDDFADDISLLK

The Kp is the ratio of the level in a tissue or fluid to that in plasma or blood. By inhibition in vivo is commonly meant the relative decrease from the control value, in per cent. For `Cc1cc(C#N)cnc1C(=O)Nc1ccc(F)c([C@@]2(C)N=C(N)[C@@](C)(F)CC2(F)F)c1`, the Kp in series [1] and in series [2] was 0.5 in each case. For the same molecule, in series [3], the inhibition in vivo at 30 mg/kg was 61%. Besides, the inhibition in vivo at 10 mg/kg in series [4] stood at 66%.

As a reminder, the pKa is the pH at which an ionisable group is half protonated. Turning to `C[C@H]1C[C@H]2CSC(N)=N[C@@]2(c2nc(NC(=O)c3ccc(OC(F)F)cn3)cs2)CO1`, the figures for the “inhibition (INH)” value in [5], in series [6] and in series [8] were 69%, 84% and 93%, respectively. The molecule also came in with a pKa in [7] of 6.9.

The IC50 is the concentration that gives 50% inhibition. `C[C@H]1C[C@H]2CSC(N)=N[C@@]2(c2cc(NC(=O)c3ccc(OC(F)F)cn3)ccc2F)CO1` had a pKa in [7] of 8.3. For the same molecule, the half-maximal inhibitory concentration (IC50) in series [9] is less than 1 nM.

With `CC(F)(F)[C@H]1OC[C@]2(c3cc(NC(=O)c4ccc(C(F)(F)F)cn4)ccc3F)N=C(N)SC[C@H]12`, the half-maximal inhibitory concentration (IC50) in series [10] came to 602 nM; in [11] it was 1.03 nM; in series [12], 11.9 nM.

On to `CN1C(N)=N[C@](C)(c2cc(NC(=O)c3ccc(F)cn3)ccc2F)CS1(=O)=O` [VERUBECESTAT], for which the “inhibition (INH)” value in [13] is reported as 57%; in series [14], 79%; in [15], 84%.

Regarding `C[C@@]1(S(C)(=O)=O)CC[C@@](CF)(c2cc(NC(=O)c3ccc(OCF)cn3)ccc2F)N=C1N`, the inhibition in vivo at 1.25 mg/kg in series [16] worked out at 89%. For the same molecule, the IC50 in series [17] worked out at 1.6 nM; in series [19], 16.6 nM; in series [20], 2.2 nM. Also, the inhibition in vivo at 0.31 mg/kg in series [18] is 78%. Moreover, the inhibition in vivo at 0.16 mg/kg in series [21] turned out to be 71%.

For `CC#Cc1cncc(-c2ccc3c(c2)[C@]2(N=C(C)C(N)=N2)[C@]2(CC[C@@H](OC)CC2)C3)c1`, the “inhibition (INH)” value in series [22] turned out to be 76%; in series [23], 52%; in series [24], 90%.

In the case of `C[C@]1(c2nc(NC(=O)c3ncc(C#N)cc3Cl)ccc2F)N=C(N)OCC1(F)F`, the 50% inhibitory concentration (IC50) in series [25] turned out to be 8 nM.

For the molecule `C[C@H]1OC[C@]2(c3cc(NC(=O)c4ccc(C#N)cn4)ccc3F)N=C(N)[C@](C)(C#N)C[C@H]12`, the inhibition in vivo at 1.25 mg/kg in series [16] was found to be 80%. Further, the IC50 in series [17] stood at 1.26 nM; in series [19], 14.5 nM; in series [20], 1.86 nM. For the same molecule, the inhibition in vivo at 0.31 mg/kg in [18] turned out to be 54%. The inhibition in vivo at 0.16 mg/kg in series [21] was 42%.

As a reminder, the efflux ratio is a quotient of directional permeabilities that is used to spot active efflux. Take `[2H]C([2H])([2H])Oc1cnc(C(=O)Nc2ccc(F)c([C@@]3(C)N=C(N)[C@@](C)(F)C[C@@H]3F)c2)cn1`: the inhibition in vivo at 3 mg/kg in series [26] is 52%. For the same molecule, in [27], the efflux ratio at 1 h was found to be 0.85. Moreover, in series [28], the Drug uptake is 610 ng/g.
